Source: paper PMC5971309, “Identification of Estrogen Receptor α Antagonists from Natural Products via In Vitro and In Silico Approaches” (Oxidative Medicine and Cellular Longevity, 2018)

Tests used:
ERα [1] = target: T1, ERα (Homo sapiens, UniProt P03372); test: green PolarScreen ERα Competitor Assay (fluorescence polarization); assay type: binding
T1 construct: purchased Life Technologies
T1 sequence (P03372 1-595): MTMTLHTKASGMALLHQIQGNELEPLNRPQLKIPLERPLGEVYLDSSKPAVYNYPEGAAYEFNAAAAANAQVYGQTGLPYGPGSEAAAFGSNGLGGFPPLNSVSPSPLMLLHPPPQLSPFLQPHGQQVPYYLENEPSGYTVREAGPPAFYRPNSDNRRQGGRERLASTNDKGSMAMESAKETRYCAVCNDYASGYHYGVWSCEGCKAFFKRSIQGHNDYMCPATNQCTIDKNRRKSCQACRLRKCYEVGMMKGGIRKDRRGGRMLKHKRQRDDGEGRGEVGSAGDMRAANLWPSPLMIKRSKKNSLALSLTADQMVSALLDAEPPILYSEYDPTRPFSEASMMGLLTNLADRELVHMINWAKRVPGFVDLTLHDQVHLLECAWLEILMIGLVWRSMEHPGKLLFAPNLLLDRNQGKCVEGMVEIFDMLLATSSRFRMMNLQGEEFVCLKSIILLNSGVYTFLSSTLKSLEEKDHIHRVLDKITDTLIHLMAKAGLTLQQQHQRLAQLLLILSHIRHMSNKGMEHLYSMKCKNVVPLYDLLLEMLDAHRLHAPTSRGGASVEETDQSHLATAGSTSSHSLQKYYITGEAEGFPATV
Procedure: The ERα binding affinities of representative compounds predicted as ERα antagonists were measured by fluorescence polarization procedure using green PolarScreen™ ERα Competitor Assay kit (Life Technologies, CA, United States of America). Briefly, 75 nM ERα together with 4.5 nM fluormone was mixed with a series of concentrations of the test compounds in the assay buffer. Then, they were incubated for 2 h in room temperature in black low volume 384-well assay plate with NBS surface (Corning, NY, United States of America) for fluorescence polarization assay. Subsequently, the detection wavelength was set at excitation wavelength 485 nm and emission wavelength 535 nm with bandwidths of 25/20 nm in EnVision Workstation version 1.7 (PerkinElmer, MA, United States of America). 2104 EnVision® Multilabel Plate Reader was performed for the measurements.

ERα [2] = test: Luciferase reporter gene assay for ERα in MCF-7 cells; assay type: cell-based, human; details: MCF-7 cells transfected with ERE-luc reporter, three concentrations, 24 h
Procedure: Cell transfection and luciferase activity assay were utilized to investigate the effects of the compounds on ER transcriptional activation. The human breast cancer cell line MCF-7 was obtained from the Beijing Key Laboratory of Drug Target Research and Drug Screening, Chinese Academy of Medical Sciences (Beijing, China). Dulbecco's Modified Eagle's Medium (DMEM) culture medium containing 10% fetal calf serum (FBS), 100 U/mL penicillin, and 100 μg/mL streptomycin was used as complete culture medium. The culture conditions were at 37°C, saturated humidity, and 5% CO2. The culture medium was changed every day and when the confluence of cells reached 90%, MCF-7 cells were digested with 0.25% trypsin containing 0.02% EDTA and then cultured under the same culture conditions. MCF-7 cells in logarithmic growth phase were resuspended in 3 mL complete culture medium and were seeded on 24-well plates with a density of 1 × 10^5/well overnight. After incubation for 24 h, cells were grown to approximately 60–80% confluence and then washed by culture medium without serum. MCF-7 cells were cotransfected with the reporter plasmid pGL2-ERE3-luc. Based on the manufacturer's instructions, transfection was mediated by lipofectamine 3000 (Invitrogen). After incubation for 12 h, transfection medium was eliminated, and MCF-7 cells were treated with three concentrations of compounds for 24 h. Then, MCF-7 cells were washed with phosphate-buffered saline (PBS) and cell lysis was collected after oscillation with a low speed. Finally, the luciferase activity was determined by dual-luciferase reporter assay system (Promega) according to the product manual.

[3] = 75 nM ERα, 4.5 nM fluormone, 2 h, room temperature

Row | Structure (SMILES) | IC50 (ERα [1]; [3]) | IC50 (ERα [1]; values in μM) | Antiestrogenic effects (ERα transactivation, luciferase activity) (ERα [2])
1 | O=c1c(-c2ccc(O)cc2)coc2cc(O)ccc12 [Daidzein] |  |  | antagonist activity was lower than that of genistein
2 | O=c1oc2c(O)c(O)cc3c(=O)oc4c(O)c(O)cc1c4c23 [Ellagic acid] | 0.0626 ± 0.00934 µM |  | decrease the expression of ERα at high and medium concentrations
3 | O=c1c(-c2ccc(O)cc2)coc2cc(O)cc(O)c12 [Genistein] |  |  | decrease the expression of the ERα remarkably at a dose-dependent manner
4 | O=C(CCc1ccc(O)cc1)c1c(O)cc(O)cc1O [Phloretin] | 0.0745 ± 0.0242 µM |  | regulated the expression of ERα in MCF-7 cells in a dose-dependent way
5 | C[C@H]1[C@H](C)CC[C@]2(C(=O)O)CC[C@]3(C)C(=CC[C@@H]4[C@@]5(C)CC[C@H](O)C(C)(C)[C@@H]5CC[C@]43C)[C@H]12 [Ursolic acid] |  |  | antiestrogenic effects only at high dose

Continued, in another order:

Row | IC50 (ERα [1]; [3]) | IC50 (ERα [1]; values in μM) | Structure (SMILES) | Antiestrogenic effects (ERα transactivation, luciferase activity) (ERα [2])
6 | 0.066 ± 0.0116 µM |  | O=C(OC1Cc2c(O)cc(O)cc2OC1c1cc(O)c(O)c(O)c1)c1cc(O)c(O)c(O)c1 (single isomer, unassigned; (-)) [EGCG, (−)-epigallocatechin-3-gallate] | 
7 | 0.968 ± 0.0709 µM |  | O=C1C[C@@H](c2ccc(O)cc2)Oc2cc(O)cc(O)c21 [Naringenin] | weak antiestrogenic effects
8 |  | > 10 µM | COc1ccc(-c2cc(=O)c3c(O)cc(O[C@@H]4O[C@H](CO[C@@H]5O[C@@H](C)[C@H](O)[C@@H](O)[C@H]5O)[C@@H](O)[C@H](O)[C@H]4O)cc3o2)cc1O [diosmin] | 
9 |  | > 10 µM | C[C@@H]1O[C@@H](O[C@H]2[C@H](Oc3cc(O)c4c(c3)O[C@H](c3ccc(O)cc3)CC4=O)O[C@H](CO)[C@@H](O)[C@@H]2O)[C@H](O)[C@H](O)[C@H]1O [naringin] | 
10 |  | > 10 µM | COc1cc(C2Oc3cc([C@H]4Oc5cc(O)cc(O)c5C(=O)[C@@H]4O)ccc3OC2CO)ccc1O (stereo partly shown) [silibinin] | 
